Data on 13 compounds can be found in ChEMBL document CHEMBL1145294, “Genotoxic activity of halogenated phenylglycine derivatives” (Bioorg Med Chem Lett, 2006).

One data set deals with MCF7. Briefly: Cytotoxicity against MCF7 cells. Type of data set: cell-based. Particulars: human.
The test system of the next data set is NCI-H460. The experiment in a line: Cytotoxicity against NCI-H460 cells. Type of data set: cell-based. Particulars: human.
In the next data set the test system is SF-268. Briefly: Cytotoxicity against SF268 cells. Type of data set: functional, cell-based. Conditions: Homo sapiens.
In data set [1] the test system is Saccharomyces cerevisiae. The experiment in a line: Cytotoxicity against Saccharomyces cerevisiae rad52. Conditions: in vivo. The data set is classed as organism-based.
The subject of data set [2] is Saccharomyces cerevisiae. Briefly: Cytotoxicity against Saccharomyces cerevisiae rad52-ku80. The data set is classed as organism-based. Conditions: in vivo.
For data set [3], the system named is Saccharomyces cerevisiae. The experiment in a line: Cytotoxicity against Saccharomyces cerevisiae rad14. The data set is classed as organism-based. Particulars: in vivo.
The test system of data set [4] is Saccharomyces cerevisiae. Briefly: Cytotoxicity against Saccharomyces cerevisiae mec1-1. The data set is classed as organism-based. Conditions: in vivo.
In data set [5] the test system is Saccharomyces cerevisiae. The experiment in a line: Cytotoxicity against Saccharomyces cerevisiae rad53-11. The data set is classed as organism-based. Conditions: in vivo.

Activity calls are given as the source filed them. The calls are words filed in the database; no cut-off is given here.

`COC(=O)C(OC(C)=O)c1ccc(OC)c(I)c1` (stereo unspecified): the Activity result with MCF7 and with NCI-H460 was “Not Active” throughout. In addition, the result in the data set on SF-268 was inactive.

Regarding `COc1ccc(C(OC(C)=O)C(=O)O)cc1I` (stereo unspecified), the Activity result in the data set with MCF7 and in the data set with NCI-H460 was “Not Active” in each case. For the same compound, the result with SF-268 was inactive.

For the compound `COC(=O)Cc1ccc(OC)c(I)c1`, the Activity entry with MCF7 and with NCI-H460 was “Not Active” in each case. Further, the outcome in the data set with SF-268 was inactive.

In the case of `COC(=O)C(c1ccc(OC)c(I)c1)N1C(=O)c2ccccc2C1=O` (stereo unspecified), the Activity entry in the data set on MCF7 and with NCI-H460 was “Not Active” each time. Further, the result in the data set on SF-268 was inactive.

Take `CC(C)(C)[Si](Oc1ccc(C(NC(=O)c2ccccc2)C(=O)O)cc1I)(c1ccccc1)c1ccccc1` (stereo unspecified): the outcome with MCF7 and in the data set on NCI-H460 was Active. Further, in the data set with SF-268, the result was Active.

`COC(=O)C(Sc1ccccc1)c1ccc(OC)c(I)c1` (stereo unspecified): the Activity entry in the data set with MCF7 and with NCI-H460 was “Not Active” each time. Also, the outcome with SF-268 was inactive.

For `COc1ccc(C(O)C(=O)O)cc1I` (stereo unspecified), the Activity entry in the data set on MCF7 and in the data set on NCI-H460 was “Not Active” throughout. In addition, in the data set on SF-268, the result was inactive.

With `COC(=O)C(NC(=O)c1ccccc1)c1ccc(OC)c(Br)c1` (stereo unspecified), the outcome in the data set with Saccharomyces cerevisiae [1], with Saccharomyces cerevisiae [2], with Saccharomyces cerevisiae [3], in the data set with Saccharomyces cerevisiae [4] and in the data set with Saccharomyces cerevisiae [5] was Active.

With `COC(=O)C(NC(=O)c1ccccc1)c1ccc(OC)c(I)c1` (stereo unspecified), the outcome with Saccharomyces cerevisiae [1], in the data set on Saccharomyces cerevisiae [2], with Saccharomyces cerevisiae [3], with Saccharomyces cerevisiae [4], in the data set on Saccharomyces cerevisiae [5] and in the data set on MCF7 was Active. The outcome in the data set with NCI-H460 was Active. Also, the result in the data set on SF-268 was Active.

On to `O=C(NC(C(=O)O)c1ccc(O)c(I)c1)c1ccccc1` (stereo unspecified), for which the Activity result with MCF7 and in the data set on NCI-H460 was “Not Active” each time. Moreover, the result in the data set on SF-268 was inactive.

Regarding `COC(=O)Nc1ccc(C(NC(=O)c2ccccc2)C(=O)O)cc1I` (stereo unspecified), the Activity result in the data set on MCF7 and in the data set with NCI-H460 was “Not Active” throughout. For the same compound, the result in the data set with SF-268 was inactive.

With `COC(=O)C(O)c1ccc(OC)c(I)c1` (stereo unspecified), the Activity result with MCF7 and in the data set on NCI-H460 was “Not Active” throughout. Further, the result in the data set with SF-268 was inactive.

Turning to `COC(=O)Cc1cc(I)c(OC)c(I)c1`, the Activity result with MCF7 and in the data set with NCI-H460 was “Not Active” throughout. For the same compound, the result in the data set with SF-268 was inactive.
